Results reported in patent publication US20250213735A1, “NEUROPEPTIDE Y1 RECEPTOR (NPY1R) TARGETED THERAPEUTICS AND USES THEREOF” (Radionetics Oncology, Inc., priority 2023, published 2025).

Molecular target: hNPY1R (Homo sapiens (Human), UniProt P25929)
Assay: NPY1R binding assay (SK-N-MC membrane, [125I]-Peptide YY competition);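 also: bound radioligand separated by filtration over GF/C filter plates and counted, Ki obtained by non-linear regression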
Conditions: crude SK-N-MC membranes endogenously expressing NPY1R; [125I]-Peptide YY (human) 0.05 nM; 120 min at room temperature; read-out: hNPY1R binding Ki

Sequence of hNPY1R (P25929 whole entry): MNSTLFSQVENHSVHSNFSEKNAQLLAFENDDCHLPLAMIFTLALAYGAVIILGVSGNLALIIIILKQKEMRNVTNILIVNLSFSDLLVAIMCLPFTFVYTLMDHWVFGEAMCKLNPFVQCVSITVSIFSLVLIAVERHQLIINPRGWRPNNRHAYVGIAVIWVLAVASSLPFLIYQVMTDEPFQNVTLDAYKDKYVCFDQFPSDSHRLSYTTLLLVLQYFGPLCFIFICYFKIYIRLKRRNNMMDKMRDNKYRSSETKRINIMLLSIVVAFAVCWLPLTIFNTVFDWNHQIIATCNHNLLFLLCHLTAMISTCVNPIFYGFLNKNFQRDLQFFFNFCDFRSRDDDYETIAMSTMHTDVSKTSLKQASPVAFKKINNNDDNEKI

Row | SMILES | Ki
1 | CCC(=O)NCCNC(=O)/N=C(/N)NCCC[C@@H](NC(=O)[C@H](c1ccc(OCCCNC(=O)CCCCCNC(=O)CN2CCN(CC(=O)O)CCN(CC(=O)O)CCN(CC(=O)O)CC2)cc1)N1Cc2ccccc2C1)C(=O)NCc1ccc(O)cc1 [1A, 2,2′,2″-(10-(2-((6-((3-(4-((1S,4R,Z)-9-amino-4-((4-hydroxybenzyl)carbamoyl)-1-(isoindolin-2-yl)-2,11,16-trioxo-3,8,10,12,15-pentaazaoctadec-9-en-1-yl)phenoxy)propyl)amino)-6-oxohexyl)amino)-2-oxoethyl)-1,4,7,10-tetraazacyclododecane-1,4,7-triyl)triacetic acid] | < 10 nM
2 | CCCC1CCN([C@@H](C(=O)N[C@H](CCCNC(=N)N)C(=O)NCc2ccc(O)cc2)c2ccccc2)CC1 [78A, (R)-5-guanidino-N-(4-hydroxybenzyl)-2-((R)-2-phenyl-2-(4-propylpiperidin-1-yl)acetamido)pentanamide] | > 1000 nM
3 | CCC(=O)NCCNC(=O)/N=C(/N)NCCC[C@@H](NC(=O)[C@H](c1ccc(OCCCN2CCN(C(=O)CCCCCNC(=O)CN3CCN(CC(=O)O)CCN(CC(=O)O)CCN(CC(=O)O)CC3)CC2)cc1)N1Cc2ccccc2C1)C(=O)NCc1c(F)cc(O)cc1F [compound 39, 2,2′,2″-(10-(2-((6-(4-(3-(4-((1S,4R,Z)-9-amino-4-((2,6-difluoro-4-hydroxybenzyl)carbamoyl)-1-(isoindolin-2-yl)-2,11,16-trioxo-3,8,10,12,15-pentaazaoctadec-9-en-1-yl)phenoxy)propyl)piperazin-1-yl)-6-oxohexyl)amino)-2-oxoethyl)-1,4,7,10-tetraazacyclododecane-1,4,7-triyl)triacetic acid] | < 10 nM
4 | CCNC(=O)/N=C(/N)NCCC[C@@H](NC(=O)[C@H](c1cccc(NCCCNC(=O)[C@H](N)CCCCNC(=O)CN2CCN(CC(=O)O)CCN(CC(=O)O)CCN(CC(=O)O)CC2)c1)N1Cc2ccccc2C1)C(=O)NCc1c(F)cc(O)cc1F [compound 13, 2,2′,2″-(10-(2-(((R)-5-amino-6-((3-((3-((11R,14S,Z)-6-amino-11-((2,6-difluoro-4-hydroxybenzyl)carbamoyl)-14-(isoindolin-2-yl)-4,13-dioxo-3,5,7,12-tetraazatetradec-5-en-14-yl)phenyl)amino)propyl)amino)-6-oxohexyl)amino)-2-oxoethyl)-1,4,7,10-tetraazacyclododecane-1,4,7-triyl)triacetic acid] | < 10 nM
5 | N=C(N)NCCC[C@@H](NC(=O)[C@H](c1ccccc1)N1Cc2ccccc2C1)C(=O)NCc1c(F)cc(O)cc1F [compound 69, (R)—N-(2,6-difluoro-4-hydroxybenzyl)-5-guanidino-2-((S)-2-(isoindolin-2-yl)-2-phenylacetamido)pentanamide] | < 10 nM
6 | N=C(N)NCCC[C@@H](NC(=O)[C@@H](c1ccccc1)N1Cc2ccccc2C1=O)C(=O)NCc1ccc(O)cc1 [71B, (R)-5-guanidino-N-(4-hydroxybenzyl)-2-((R)-2-(1-oxoisoindolin-2-yl)-2-phenylacetamido)pentanamide] | > 1000 nM
7 | CCC(=O)NCCNC(=O)/N=C(/N)NCCC[C@@H](NC(=O)[C@H](c1ccccc1)N1Cc2cccc(NCCCNc3c(NCCCCCCNC(=O)CN4CCN(CC(=O)O)CCN(CC(=O)O)CCN(CC(=O)O)CC4)c(=O)c3=O)c2C1)C(=O)NCc1c(F)cc(O)cc1F [compound 34, 2,2′,2″-(10-(2-((6-((2-((3-((2-((1S,4R,Z)-9-amino-4-((2,6-difluoro-4-hydroxybenzyl)carbamoyl)-2,11,16-trioxo-1-phenyl-3,8,10,12,15-pentaazaoctadec-9-en-1-yl)isoindolin-4-yl)amino)propyl)amino)-3,4-dioxocyclobut-1-en-1-yl)amino)hexyl)amino)-2-oxoethyl)-1,4,7,10-tetraazacyclododecane-1,4,7-triyl)triacetic acid] | < 10 nM
8 | N=C(N)NCCC[C@@H](NC(=O)C(c1ccccc1)N1CCN(c2ccccc2)CC1)C(=O)NCc1ccc(O)cc1 (stereo partly drawn) [compound 76, (2R)-5-guanidino-N-(4-hydroxybenzyl)-2-(2-phenyl-2-(4-phenylpiperazin-1-yl)acetamido)pentanamide] | > 1000 nM
9 | CCC(=O)NCCNC(=O)/N=C(/N)NCCC[C@@H](NC(=O)[C@@H](c1ccccc1)N1Cc2ccccc2C1)C(=O)NCc1ccc(O)cc1 [60B, (R)—N-(4-hydroxybenzyl)-2-((R)-2-(isoindolin-2-yl)-2-phenylacetamido)-5-((Z)-2-((2-propionamidoethyl)carbamoyl)guanidino)pentanamide] | 10 to 100 nM
10 | N=C(N)NCCC[C@@H](NC(=O)C(c1ccccc1)N1CCC2(CCC2)CC1)C(=O)NCc1ccc(O)cc1 (stereo partly drawn) [compound 89, (2R)-5-guanidino-N-(4-hydroxybenzyl)-2-(2-phenyl-2-(7-azaspiro[3.5]nonan-7-yl)acetamido)pentanamide] | 10 to 100 nM
11 | CCC(=O)NCCNC(=O)/N=C(/N)NCCC[C@@H](NC(=O)[C@H](c1ccc(OCCNC(=O)CCCCCNC(=O)CN2CCN(CC(=O)O)CCN(CC(=O)O)CCN(CC(=O)O)CC2)cc1)N1Cc2ccccc2C1)C(=O)NCc1ccc(O)cc1 [compound 58, 2,2′,2″-(10-(2-((6-((2-(4-((1S,4R,Z)-9-amino-4-((4-hydroxybenzyl)carbamoyl)-1-(isoindolin-2-yl)-2,11,16-trioxo-3,8,10,12,15-pentaazaoctadec-9-en-1-yl)phenoxy)ethyl)amino)-6-oxohexyl)amino)-2-oxoethyl)-1,4,7,10-tetraazacyclododecane-1,4,7-triyl)triacetic acid] | < 10 nM
12 | CCC(=O)NCCNC(=O)/N=C(/N)NCCC[C@@H](NC(=O)[C@H](c1cccc(NCCCNC(=O)[C@@H](CO)NC(=O)CCNC(=O)CN2CCN(CC(=O)O)CCN(CC(=O)O)CCN(CC(=O)O)CC2)c1)N1Cc2ccccc2C1)C(=O)NCc1ccc(O)cc1 [compound 30, 2,2′,2″-(10-(2-((3-(((R)-1-((3-((3-((1S,4R,Z)-9-amino-4-((4-hydroxybenzyl)carbamoyl)-1-(isoindolin-2-yl)-2,11,16-trioxo-3,8,10,12,15-pentaazaoctadec-9-en-1-yl)phenyl)amino)propyl)amino)-3-hydroxy-1-oxopropan-2-yl)amino)-3-oxopropyl)amino)-2-oxoethyl)-1,4,7,10-tetraazacyclododecane-1,4,7-triyl)triacetic acid] | < 10 nM
13 | CCC(=O)NCCNC(=O)/N=C(/N)NCCC[C@@H](NC(=O)C(c1cccc(NC(=O)CCCNC(=O)[C@@H](CO)NC(=O)CCNC(=O)CN2CCN(CC(=O)O)CCN(CC(=O)O)CCN(CC(=O)O)CC2)c1)N1Cc2ccccc2C1)C(=O)NCc1c(F)cc(O)cc1F (single isomer, unassigned) [32A] | < 10 nM
14 | CCC(=O)NCCNC(=O)/N=C(/N)NCCC[C@@H](NC(=O)[C@@H](c1ccccc1)N1Cc2ccccc2C1)C(=O)NCc1c(F)cc(O)cc1F [61B, (R)—N-(2,6-difluoro-4-hydroxybenzyl)-2-((R)-2-(isoindolin-2-yl)-2-phenylacetamido)-5-((Z)-2-((2-propionamidoethyl)carbamoyl)guanidino)pentanamide] | < 10 nM
